In patent publication US20090136522A1, “Multivalent Immunogen” (priority 2006, published 2009):
Entries after “also recorded” stand apart in the source; their conditions may differ.

Test system: 4E10 mAb
Experiment: Binding of chromophore labeled tetramers to 4E10 antibody coated beads
Details: chromophore on tetramer-SA complex
Excerpt: FIGS. 6A-6F: Binding of chromophore labeled tetramers to 4E10 antibody coated beads. In all panels, shaded curves show binding to control Ig-coated beads and solid lines show binding to 4E10 coated beads. FIG. 6A. 2F5-epitope tetramers labeled with APC. FIG. 6B. 2F5-epitope tetramers labeled with PE-AF680. FIG. 6C. V3-epitope tetramers labeled with PE-AF750. FIG. 6D. Scrambled 2F5-epitope tetramers labeled with APC. FIG. 6E. Scrambled 2F5-epitope tetramers labeled with PE-AF680. FIG. 6F. Scrambled V3-epitope tetramers labeled with PE-AF750. Thus, 4E10 mAb binds to phycoerythrin on any tetramer-SA complex.
The specificity of the tetramers can be determined using a panel of murine hybridoma cell lines that produce either antibodies that react with the 2F5 epitope (5A9), the 4E10 epitope of HIV gp41 (10B12) or the V3 region of HIV gp120 (7B9 or F39F). Using these cell lines, the B cell tetramer can be bound to the cell line and assayed for binding by, for example, flow cytometry (FIGS. 4A and 4B). Alternatively, the 2F5, 4E10 anti-MPER and 7B9 anti-V3 mAbs can be conjugated to, for example, a […], and the specificity of tetramer binding to the beads determined (FIG. 5).
Studies conducted have shown that a mimetope of the MPER 4E10 region is phycoerythrin, in that 4E10 mAb coated beads bound tetramer labeled with phycoerythrin but not allophycocyanin (APC) (FIG. 6). […]

| Substance | binding to 4E10 mAb coated beads |
| --- | --- |
| allophycocyanin [allophycocyanin (APC)] | not |
| phycoerythrin | binds; also recorded: bound |
